Measurements reported in patent US6417220B2, “Mitochondrial membrane stabilizer” (Daiichi Pharmaceutical Co., Ltd., priority 1996, dated 2002).

How the values were obtained:
NG108-15 cells [1] = experiment: Determination of the intracellular Ca2+ concentration (fura2-AM fluorescence ratio); format: cell-based
Text: The present invention will be explained more specifically by referring to the following examples. However, the scope of the present invention is not limited to these examples. The test procedure in the examples was according to the method of Hare et al. (Hare, M. F., et. al., JPET, 266, pp.1626-1635, 1993) unless otherwise indicated. In the examples, “Nefiracetam” means 2-oxo-1-pyrrolidinylacetic acid 2,6-dimethylanilide, and “Ro5-4864” means the mitochondrias benzodiazepine receptor agonist, (7-chloro-5-(4-chlorophenyl)-1,3-dihydro-1-methyl-2H-1,4-benzodiazepin-2-one: TIPS, December, pp. 506-511, 1986).
Changes in the intracellular Ca^2+ concentration caused by Ro5-4864 was studied. Cultured cells (NG108-15 cells: nerve cell x neuroglia cell hybrid) were cultured in DMEM culture medium, and further cultured in Flexiperm Disc (Heraeus Biotechnology) provided with a cover glass and used in the following described below. The cultured NG 108-15 cells were added with Ro5-4864 at final concentration of […]. A fluorescent remedicament, fura2-AM (1-(6-amino-2-(5-carboxy-2-oxazoly-5-benzofuranyloxy)-2-(2-amino-5-methylphenoxy)-ethane-N,N,N′,N′-teraacetic acid, pentaacetoxymethyl ester, Dojindo Laboratories) was dissolved in DMSO (Dimethylsulfoxide, Nakarai Chemical) to prepare a 1 mM solution, and this solution was diluted 200 times with HBS (Herpes-saline solution, composition: NaCl; 130 mM; KCl: 5.4 mM; CaCl2: 1.8 mM; MgSO4: 0.8 mM; D-glucose: 20 mM; Na^+-HEPES; 20 mM, pH 7.3) to prepare a fluorescent reagent solution (final concentration of fra2-AM: 5 μM).
For the determination of intracellular Ca^2+ concentrations, the culture medium was removed from the Petri dish where the NG108-15 cells were cultured, and the dish was washed twice with HBS. The cultured cells were added with the 5 μM fura2-AM solution prepared above, put in a carbon dioxide gas incubator for 30 minutes, and then washed with HBS five times to remove the added fura2-AM solution. Finally, 1 ml of HBS was added to the Flexiperm, and the intracellular Ca^2+ concentration was measured by ARGUS-50/CA (Hamamatsu Photonics). According to this measurement, the fluorescence of Ca^2+-bound type fura-2 emitted at an excitation wavelength of 340 nm and the fluorescence of Ca^2+-free type fura-2 emitted at an excitation wavelength of 380 nm were measured as a pair at a constant interval for the fura-2 loaded cultured cells, and their relative ratio (ratio of fluorescence intensity) was used to analyze the intracellular Ca^2+ dynamics (concentration). An increase in the 340 nm excited fluorescence due to the binding of intracellular calcium ions to the fura2-AM, and a decrease in the 380 nm excited fluorescence were recorded by imaging and the ratio of fluorescence intensity between the fluorescence images was obtained.

NG108-15 cells [2] = experiment: Determination of the mitochondrial membrane potential (Rhodamine 123 fluorescence); format: cell-based
[3] = male mouse, p.o.; cited from earlier work

With `CN(C(=O)Cn1c(=O)n2c(Br)c(-c3cccc(Cl)c3)nc2c2ccccc21)c1ccccc1` [NCS-1044-90, 2-(3-Chlorophenyl)-3-bromo-6-(N-methyl-N-phenylacetamido)-5-oxo-5,6-dihydroimidazo[1,2-c]quinazoline] the “change in intracellular Ca2+ concentration on addition of Ro5-4864” value (NG108-15 cells [1]; Ro5-4864 100 μM applied to cells treated beforehand with NCS-1044-90 10 μM, FIG. 9) was “only a very small elevation”, the “change in intracellular mitochondrial membrane potential” value (NG108-15 cells [2]; NCS-1044-90 10 μM alone, FIG. 10) was “No change” and the “change in intracellular mitochondrial membrane potential on addition of Ro5-4864” value (NG108-15 cells [2]; Ro5-4864 50 μM added to cells treated with NCS-1044-90 10 μM, FIG. 10) was “only a very small elevation”. The “change in intracellular mitochondrial membrane potential on further addition of Ro5-4864” value (NG108-15 cells [2]; further treatment with Ro5-4864 100 μM, cells treated with NCS-1044-90 10 μM, FIG. 10) was “slight and gentle elevation”.
In the case of `Cc1cccc(C)c1NC(=O)CN1CCCC1=O` [Nefiracetam, 2-oxo-1-pyrrolidinylacetic acid 2,6-dimethylanilide], the “change in intracellular Ca2+ concentration” value (NG108-15 cells [1]; Nefiracetam 50 μM alone, after washing, FIG. 5) was “no change”, the “change in intracellular Ca2+ concentration on addition of Ro5-4864” value (NG108-15 cells [1]; Ro5-4864 25 μM in the presence of Nefiracetam 50 μM, FIG. 5) was “almost no change” and the “change in mitochondrial membrane potential” value (NG108-15 cells [2]; Nefiracetam 50 μM alone, FIG. 6) was “no change”. For the same compound, the “change in mitochondrial membrane potential on addition of Ro5-4864” value (NG108-15 cells [2]; Ro5-4864 25 μM in the presence of Nefiracetam 50 μM, FIG. 6) was “almost no change”, the “depolarizing effect of Ro5-4864 on mitochondrial membranes” value (NG108-15 cells [2]; Ro5-4864 50 μM in the presence of Nefiracetam, FIG. 6) was “weak” and the acute toxicity [3] was 2,005 mg/kg.
In the case of `CN1C(=O)CN=C(c2ccc(Cl)cc2)c2cc(Cl)ccc21` [Ro5-4864, 7-chloro-5-(4-chlorophenyl)-1,3-dihydro-1-methyl-2H-1,4-benzodiazepin-2-one], the “change in intracellular Ca2+ concentration” value (NG108-15 cells [1]; Ro5-4864 25 μM alone, FIG. 5, first peak) was “elevation”, the “change in intracellular Ca2+ concentration” value (NG108-15 cells [1]; Ro5-4864 50 μM alone, FIG. 7, first peak) was “elevation” and the “change in intracellular Ca2+ concentration” value (NG108-15 cells [1]; Ro5-4864 50 μM applied after bradykinin and caffeine treatment (endoplasmic reticulum Ca2+ depleted), FIG. 3) was “markedly elevated”. The “change in intracellular Ca2+ concentration” value (NG108-15 cells [1]; Ro5-4864 alone, FIG. 1) was “sharply increases”, the “change in mitochondrial membrane potential” value (NG108-15 cells [2]; Ro5-4864 50 μM alone, FIG. 2) was “remarkably decreased” and the “change in mitochondrial membrane potential” value (NG108-15 cells [2]; Ro5-4864 50 μM applied after caffeine and bradykinin, FIG. 4) was “remarkable decrease”.
For `Cn1c(=O)c2c(ncn2C)n(C)c1=O` [caffeine, reference compound], the “change in mitochondrial membrane potential” value (NG108-15 cells [2]; caffeine 10 μM and bradykinin 1 μM applied, FIG. 4) was “no alteration”.
